This is an account of results in US6340692B1, “Injectable anesthetic” (priority 1999, dated 2002).

One assay concerns male chinchilla rabbits. Kind of assay: Epidural anesthesia in rabbits. In kind it is in vivo. The following applies: for effective duration of epidural anesthesia: chinoxicaine 2.0% solution, Lidocaine as comparison. How it is done: A study of epidural anesthesia was conducted on male chinchilla rabbits. The epidural puncture was made in the area of the third and fourth lumbar vertebrae by means of a Tuohi-Peridur needle. A 2.0% solution of chinoxicaine was injected into the epidural area in a volume determined in accordance with the following formula: [formula]

For the next assay, the system named is male guinea pigs. Put plainly: Infiltration anesthesia, Beulbring-Wade method. In kind it is in vivo. How it is done:
The pharmacological activity of chinoxicaine has been evaluated using the characteristics of: i) strength of anesthesia, ii) latent period, and iii) duration of anesthesia. A study of infiltration anesthesia was conducted according to the Beulbring-Wade method on male guinea pigs. The median effective concentration (EC50) was 0.1%. Latent period was about 1.5 minutes. The duration of deep anesthesia was: i) 25 minutes for the 0.1% solution, ii) 140.5 minutes for a 0.25% solution, iii) 310.8 minutes for a 0.5% solution, and iv) 313.8 minutes for a 1.0% solution. On the basis of specific pharmacological activity data, described in greater detail below, chinoxicaine is preferably provided as either a 0.25% or 0.5% solution in 250 mL bottles for use in infiltration anesthesia, and as a 1.0% or 2.0% solution in 5 mL ampoules for conduction and epidural anesthesia. In alternative embodiments, the anesthesia solution includes a 0.9% solution of sodium chloride.

Another assay has as its system sciatic nerve. Kind of assay: Sciatic nerve conduction anesthesia, Camaugis-Tekman method. The following applies: for duration of the anesthesia: 0.2 mL. The class given is in vivo, rats. The procedure: A study of sciatic nerve conduction anesthesia in rats was conducted in accordance with the Camaugis-Tekman method. Prior to injection of the anesthesia, the rat motor activity was evaluated by applying a compression to the animal's feet. Then, a 0.2 mL volume of chinoxicaine solution was injected into the sciatic nerve area of the pronated lower extremity. With the application of a subsequent compression to the its feet, the animal's reaction was evaluated by observing if the animal pulled apart its toes in a ‘fan-shaped’ manner when suspended by its tail. It was determined that both 1.0% and 2.0% concentrations of chinoxicaine solutions produced fast, deep, and prolonged anesthesia. The anesthesia reached fill extent within 2.0±0.3 minutes, with either concentration.

Another assay deals with white non-breeding rats. Kind of assay: Conduction anesthesia, injection under the tail skin. In kind it is in vivo. The following applies: 1.0 mL under the tail skin. How it is done: A study of conduction anesthesia was carried out on white non-breeding rats weighing 180 to 220 grams. The anesthetic solution was injected under the tail skin on four sides in a 1.0 mL volume at concentrations ranging from 0.1% to 1.0%. Duration of the anesthetic solution was 120.3±7.1 minutes for the 0.1% concentration, 300.5±15.5 minutes for a 0.25% concentration, 306.0±16.2 minutes for a 0.5% concentration, and 320.0±13.1 minutes for the 1.0% concentration.

A short description of assay [1]: Conduction anesthesia, some models (general statements). In kind it is in vivo.
[2] abbreviates: infiltration anesthesia, male guinea pigs.

Consider `CCN(CC)CC(=O)Nc1c(C)cccc1C` [Lidocaine, reference compound], for which, in the assay on male chinchilla rabbits (epidural), the “effective duration of epidural anesthesia” value is given as “about 100 minutes”.

Take `CCCn1c(=O)c(C(=O)NCCN(CC)CC)c(O)c2ccccc21.Cl` [chinoxicaine, hydrochloride diethylaminoethylamide 1-propyl-2 oxy-4-hydroxyquinolin-3-carbonic acid]: the “duration of deep anesthesia” value was found to be 25 min in the assay with male guinea pigs (0.1% solution), 140.5 min with male guinea pigs (0.25% solution), 310.8 min with male guinea pigs (0.5% solution) and 313.8 min with male guinea pigs (1.0% solution). In addition, the “effectiveness relative to Lidocaine or Azacaine” value with male guinea pigs (0.5% solution, long infiltration applications) is reported as at most 2.5 times. For the same molecule, the “increase in activity as compared to Lidocaine” value in the assay with male guinea pigs (infiltration anesthesia) and with male chinchilla rabbits (epidural anesthesia) was “two-fold increase” each time. The “increase in activity over Trimecaine” value (in the assay with male guinea pigs (infiltration anesthesia); in assay [1] (conduction anesthesia)) was “comparable increase” in each case. For the same molecule, in the assay on male guinea pigs (setting [2]), the Latent period result is “about 1.5 minutes”. Also, the “median effective concentration (EC50)” value with male guinea pigs (setting [2]) was 0.1%. Besides, the “duration of the anesthesia” value in the assay on sciatic nerve (1.0% concentration) came out at 138.0 ± 8.9 min; with sciatic nerve (2.0% concentration) it was 205.0 ± 12.6 min. Besides, in the assay with sciatic nerve (either 1.0% or 2.0% concentration, 0.2 mL into sciatic nerve area), the “time until anesthesia reached full extent” value was at most 2.0 ± 0.3 min. Besides, in the assay with male chinchilla rabbits (2.0% solution, epidural), the “time from injection to deep and prolonged anesthesia” value is at most 5.0 min. For the same molecule, the “effective duration of epidural anesthesia” value with male chinchilla rabbits (epidural) was “at least 200 minutes”. The “duration of long and deep epidural and peridermal anesthesia” value in the assay with male chinchilla rabbits (rabbits) is given as “about 270 minutes”. For the same molecule, the “Duration of conduction anesthesia” value in the assay with white non-breeding rats (0.1% concentration) amounted to 120.3 ± 7.1 min; with white non-breeding rats (0.25% concentration) it was 300.5 ± 15.5 min; with white non-breeding rats (0.5% concentration), 306.0 ± 16.2 min; in the assay with white non-breeding rats (1.0% concentration), 320.0 ± 13.1 min. Moreover, the “effective duration relative to Trimecaine or Lidocaine” value in assay [1] (0.5% solution, conduction applications) is “as much as twice”.
